In patent US11857661B2, “Anti-dandruff composition” (Kancor Ingredients Ltd, priority 2018, dated 2024):

Experiments:
[1] = test system: Malassezia furfur CBS 1878; assay: Association testing, checkerboard titration (FIC index); format: cell-based; conditions: M. furfur CBS 1878; sample B alone
From the text: (§1) As noted above, the anti-dandruff active portion of the anti-dandruff composition comprises (or consists essentially of) a combination of at least two of the three described anti-dandruff actives (i.e., the punicalagin composition, the first monoterpenoid composition, and the second monoterpenoid composition). The combinations are based on the additive or synergistic relationship between the individual anti-dandruff actives. Inhibition testing of the individual anti-dandruff actives to determine MIC levels followed the principles and general methods disclosed in C. Lens-Lisbonne, et al. “Methods for the evaluation of antibacterial activity of essential oils: applications to essences of thyme and cinnamon,” J. Pharm. Belg., 1987, 42(5): 297-302; and C. Lisbonne “Evaluation of bacteriostatic activity of essential oils and their components,” Doctoral Thesis, Pharmacy Faculty, Marseille, F R 1988. Interactions of bi-component mixtures (Fractional Inhibitory Concentration) were evaluated in accordance with the method described by J. L. Pons et al., “Evaluation of antimicrobial interactions between chlorhexidine, quaternary ammonium compounds, preservatives and excipients,” J. Appl. Bacteriol., 1992, 73, 395-400, to assess their additive or synergistic effects.
Study of Associations. After obtaining the MIC levels for each of the anti-dandruff actives by broth dilution method, a checkerboard titration technique was performed to assess the synergistic activity of the combinations. In order to evaluate the activity of the combinations of the anti-dandruff actives, a Fractional Inhibitory Concentration index (FICindex) was calculated: (FICindex)=FIC^A+FIC^B, where FIC^A and FIC^B represent the minimum concentrations inhibiting the M. furfur growth for anti-dandruff actives A and B, respectively. And FIC^A=MIC^Acombination/MIC^Aalone, and FIC^B=MIC^Bcombination/MIC^Balone.] A mean FIC index was calculated based on the following equation: FICindex=FIC^A+FIC^B. Synergism is defined as FIC≤0.75; additive as FIC˜1; indifference as 1<FIC≤2; and antagonism is defined as FIC>2, as reported by J. L. Pons; N. Bonnaveiro; J. Chevalier; and A. Crémieux, “Evaluation of antimicrobial interactions between chlorhexidine, quaternary ammonium compounds, preservatives and excipients,” J. Appl. Bacteriology, 1992, 73(5), 395-400.

[2] = test system: Malassezia furfur CBS 1878; assay: Minimum inhibitory concentration, broth dilution; format: cell-based; conditions: M. furfur CBS 1878; for minimum inhibition concentration (MIC) value: classic broth dilution protocol
From the text: Inhibition is defined as giving less than 20% growth compared to a control, as determined by spectrophotometric optical density (OD) reading at 620 nm, using the formula % of growth=[(ODproduct−OCabsorbance-control)]/(ODpositive growth-control).
as §1
Briefly, as is commonly known by those skilled in the art of the instant disclosure, assessment of Malassezia furfur inhibition may be accomplished following standard and accepted practices, such as that described in U.S. Patent Application Publication No. 2008/0249186. Accordingly, an external testing laboratory performed a series of against Malassezia furfur to evaluate antimicrobial activity and interactions (see Lens, et al. “Methods for the evaluation of antimicrobial activity of essential oils,” J. Pharm. Belg. 1987). Inhibitory activity testing was conducted by mixing 100 μl of various dilutions of the test product at a double concentration with an equal volume (100 μl) of a double strength Difco™ Sabouraud dextrose broth supplemented with olive oil, inoculated between 2 to 6×10^5 cfu/mL. After incubation (24-72 hours, at 32.5° C.±2.5° C.), a spectrophotometric reading at 620 nm is performed and the percentage of growth calculated from optical density (OD) measuring each concentration with respect to a positive growth control according to the following equation: % of growth=[ODproduct−ODabsorbance-control)]/(ODpositive growth-control).
Each concentration was tested in triplicate, and two assays were performed per product. The positive growth control consisted of 100 μl 1% agar solution mixed with 100 μl of inoculated broth.

Compound | MIC B Alone % [1] | Minimum Inhibitory Concentration, Test 1 [2] | Minimum Inhibitory Concentration, Test 2 [2] | minimum inhibition concentration (MIC) value [2]
O=c1oc2c(O)c(O)cc3c(=O)oc4c(O)c(O)cc1c4c23 [EA, Ellagic Acid] | 0.5% | 0.5% | 0.5% | 0.5%
CC1=CCC(C(C)C)=CC1 [GTP, gamma-terpinene] | >1% |  |  | > 1%
Cc1ccc(C(C)C)cc1 [PCY, para-cymene] | 0.5% |  |  | 0.5%
Cc1ccc(C(C)C)c(O)c1 [TML, thymol] | 0.05% |  |  | 0.05%
Punicalagins A&B | 0.05% | 0.05% | 0.05% | 0.05%
